Key:
NMD = conditions: cited from earlier work
[1] = test system: P53 protein in Calu-6 cells; assay: P53 and P21 protein in Calu-6 cells by Western blot; type: cell-based
Experimental: Moreover, G07 enables the synthesis of a truncated P53 protein and a full-length P53 protein in Calu-6 cells. G07 is thus different from the molecules disclosed in WO 2008/101935. Regarding the molecules disclosed in the above-mentioned document, only the truncated protein has been detected. Protein extracts of Calu-6 cells incubated or not with G07 were loaded on an electrophoresis gel and then transferred on a nitrocellulose membrane in order to detect P53 protein after incubation with an anti-P53 antibody (an anti-P53 antibody is an antibody directed against the amino terminal part of P53 (Santa Cruz)).
When P53 protein is synthesized, P53 activates P21 expression. […] Thus, P53 protein synthesized thanks to G07 induces P21 expression as WT P53 protein does. Consequently, the Applicants have thus confirmed that G07 enables the synthesis of a functional full-length P53 protein.

[2] = test system: PTC-containing dystrophin gene in DMD cells; assay: Dystrophin mRNA in DMD cells by RT-PCR; type: cell-based
Experimental: As regards the results of FIG. 11 a, DMD cells were incubated with increasing amounts of […] molecule or as a control with DMSO. RNAs were purified using RNazol reagent (MRC) and reverse transcribed using Superscript. II (Life technologies) and random hexamer. PCR using radiolabelled CTP was performed in order to amplify either dystrophin or GAPDH cDNA. Amplification products were loaded on 5% polyacrylamide gel. The gel was then dried and exposed on phosphoscreen in order to allow quantification of each amplification species by Personal Molecular Imager (Biorad).

[3] = test system: PTC-containing dystrophin gene in DMD cells; assay: Dystrophin protein in DMD cells by Western blot; type: cell-based
Experimental: As regards the results of FIG. 11 b, DMD cells were incubated with increasing amounts of […] molecule or as a control with DMSO. Protein extracts from these cells were loaded on 10% SDS-PAGE and transferred on nitrocellulose membrane. Nitrocellulose membrane was then exposed to primary antibody (either anti-dystrophin antibody raised against the amino-part of dystrophin protein (Santa-Cruz), or anti-tubulin antibody in order to specify the loading protein amount of each lane.

[4] = test system: P53 mRNA (UGA PTC at codon 196) in Calu-6 cells; assay: P53 mRNA level in Calu-6 cells by RT-PCR; type: cell-based
Description: RNAs of said Calu-6 cells were reverse transcribed and amplified through PCR (RT-PCR) in the presence of a radioactive labeling nucleotide in order to measure P53 mRNA and GAPDH mRNA levels (GAPDH being used as a loading control). […] Amplified reverse transcribed mRNAs were loaded on an acrylamide gel and submitted to electrophoresis. Acrylamide gel was then dried on Whatman paper and applied on a phosphoscreen (Kodak). A Personal Molecular Imager (Bic-Rad) was used to quantify amplified radiolabelled species. Calu-6 cells were incubated with growing concentrations of G07 in DMSO during about twenty hours. This was carried out in order to confirm NMD inhibition activity of G07. After incubation, RNAs were purified by using TriReagent (MRC) and then reverse-transcribed into cDNA which can be PCR amplified in presence of a radiolabelled nucleotide.
Thus, an increasing quantity of P53 mRNA results from stabilization thereof. […] GAPDH (Glyceraldehyde 3-phosphate deshydrogenase) mRNA was amplified in order to normalize the measurement of P53 mRNA between two lanes.

[5] = after oral administration; cited from earlier work
[6] = test system: NMD (Firefly luciferase mRNA tethered with MS2-UPF fusion protein); assay: NMD inhibition using Firefly luciferase in HeLa cells; type: cell-based; conditions: 10 μmol/l of G07, versus control wells
Description: The presence of one of the following UPF proteins (UPF1, UPF2, UPF3 (also called UPF3a) or UPF3X (also called UPF3b)) on the 3′UTR part of an mRNA, activates NMD on this particular mRNA. When an UPF protein is located downstream from a normal stop codon, said normal stop codon is recognized as a PTC. Consequently, the mRNA comprising the UPF protein will be degraded through NMD.
HeLa cell-line expressing Firefly luciferase mRNA were used. Firefly luciferase mRNA harbors MS2 binding sites in the 3′UTR. The above-mentioned cells further contain a fusion protein which consists in said MS2 protein and one of the four UPF proteins. This fusion protein enables UPF positioning downstream from the normal stop codon (i.e. on the 3′UTR part of this mRNA). Accordingly, the normal stop codon is recognized as a PTC. Consequently, NMD is activated and degrades Firefly luciferase mRNA.
Luciferase activity in the above-mentioned cells is thus directly linked to NMD activity.
HeLa cells were cultured in DMEM (Gibco) supplemented with 10% FBS and containing 10 μmol/l of G07.

[7] = test system: CFTR mRNA (PTC at position 1282) in IB3 cells; assay: NMD inhibition in IB3 cells (CFTR mRNA by RT-PCR); type: cell-based; conditions: increasing concentrations, 20 hours
Experimental: IB3 cells harbor a […] in position 1282 in place of the tryptophan codon of the CFTR gene.
IB3 cells (ATCC) were incubated in DMSO solutions containing pure DMSO (as a control) or increasing G07 concentrations, respectively, during 20 hours.
RNAs obtained after incubation were purified and a RT-PCR was performed to measure the amount of CFTR mRNA (containing a PTC) and the amount of GADPH mRNA (used as a control).

CFTR in 6-CFSMEo- cells = assay: Iodide efflux in 6-CFSMEo- cells (SPQ fluorescence); type: cell-based; conditions: 6-CFSMEo- cells, 0.2, 1, 5 and 25 μM; forskolin 20 μM and IBMX 200 μM
Experimental: 6-CFSMEo− cells harbor a PTC in place of the glutamine 2 codon of the CFTR gene.
6-CFSMEo^− cells were seeded in 96-well plates and loaded overnight with 10 mM of the halide-sensitive fluorophore dye 6-methoxy-N-(3-sulfopropyl)-quinolinium (SPQ, Invitrogen). Cells were washed twice with iodide buffer (135 mM NaI, 2.4 mM K2HPO4, 0.6 mM KH2PO4, 1 mM MgSO4, 1 mM CaSO4, 10 mM dextrose and 10 mM Hepes, pH 7.3) and then incubated in iodide buffer for 30 min. After basal fluorescence was measured for 2 min, the iodide buffer was replaced with nitrate buffer (with 135 mM NaNO3 instead of NaI) containing 20 μM of forskolin and 200 μM of IBMX, and fluorescence was further measured for 10 minutes. The fluorescence intensities were measured every 15 seconds using the Tristar LB 941 microplate reader (Berthold) equipped with a 340 nm excitation filter and a 450 nm emission filter. […] G07 concentrations used were 0.2 μM, 1 μM, 5 μM and 25 μM, respectively. The increase in iodide efflux is shown as mean±SEM from at least four independent assays. It refers to the fluorescence at the reading time; F0 refers to the average fluorescence before addition of the above-mentioned nitrate buffer containing 20 μM of forskolin and 200 μM of IBMX.

[8] = test system: MOR mRNA (MOR gene with NMD-activating nonsense-mutation); assay: In vivo NMD inhibition in KIM mice (MOR mRNA in brain); design: species or system mouse; conditions: 1Q and 2Q (0.2 and 2 mg/kg) injected in DMSO, 24 hours after injection
Experimental: In KIM mice, MOR gene harbors a NMD-activating nonsense-mutation. MOR gene is expressed in nervous central system. Solutions containing 0.2, 2 or 20 mg/kg of G07 (1Q, 2Q or 3Q respectively) dissolved in DMSO were injected into KIM mice. A control group consists of animals treated with pure DMSO. Animals were then euthanized 6, 24 or 32 hours after injection. RNAs extracted from brain homogenates were purified using TriReagent (MRC) and then analyzed as described with reference to FIG. 2. The difference between the experiments described with reference to FIG. 2 is that in the present case the mRNAs analyzed are the mRNA coding for MOR gene and the mRNA coding for the GAPDH gene used as a control to quantify measured MOR mRNA. The first 3 wells from the left correspond to a half dilution of a sample coming from a wild-type mouse brain. These 3 wells were used to check the PCR conditions which have to be quantitatively useful. […] The same technique as described with reference to FIG. 2 was used except the fact that RNA comes from KIM mice brains. Some of these KIM mice were injected with G07.

| SMILES | NMD inhibiting activity (NMD) | P21 protein (functionality of P53) ([1]; 25 and 125 μM) | P53 protein synthesis (Western blot) ([1]; about 20 hours incubation) | concentration of maximum efficacy, dystrophin mRNA [2] [µM] | dystrophin mRNA (RT-PCR) ([2]; increasing amounts) | concentration of maximum efficacy, dystrophin protein [3] [µM] | dystrophin protein (Western-blot) ([3]; increasing amounts) | NMD inhibition / P53 mRNA stabilization ([4]; 25 μM) | quantity of P53 mRNA (normalised to GAPDH mRNA) ([4]; growing concentrations in DMSO, about twenty hours) | tissue distribution [5] | luciferase activity (NMD inhibition) [6] | ratio amount of CFTR mRNA/amount of GAPDH mRNA [7] | iodide efflux (CFTR in 6-CFSMEo- cells) | MOR mRNA level in brain [8] |
| --- | --- | --- | --- | --- | --- | --- | --- | --- | --- | --- | --- | --- | --- | --- |
| O=C(O)c1cccc(-c2noc(-c3ccccc3F)n2)c1 [PTC124, 3-[5-(2-fluorophenyl)-1,2,4-oxadiazol-3-yl]benzoïc acid] | no NMD inhibiting activity |  |  |  |  |  |  |  |  |  |  |  |  |  |
| CC(C)c1ccc2oc3nc(N)c(C(=O)O)cc3c(=O)c2c1 [G07, 2-amino-7-isopropyl-5-oxo-5H-chromeno[2,3-b]pyridine-3-carboxylic acid] |  | presence of P21 | full-length and truncated P53 proteins are synthesized | 5 | stabilization of dystrophin mRNA | 5 | synthesis of dystrophin protein | inhibits NMD and enables a stabilization of P53 mRNA | increased quantity of P53 mRNA | preferably distributed in liver, kidneys and intestine | higher than in control wells | increased stabilization of CTFR mRNA | dose-response effect | stabilization of MOR mRNA |

From US10265302B2, “Compound useful for the treatment of nonsense-mutation-mediated diseases and pharmaceutical composition comprising said compound” (UNIVERSITE DE LILLE, priority 2010, dated 2019)
